Experimental data as given in patent US20090239834A1, “MCC-257 MODULATION OF NEUROGENESIS” (BrainCells, Inc., priority 2008, published 2009).
“Also recorded” adds a separate entry of the source.

Columns and labels:
[1] = system: male F344 rats; experiment: Novelty-suppressed feeding test (NSF), chronic dosing; assay type: in vivo, rat; conditions: vs vehicle, p<0.05 one-tailed Student's t-test, FIG. 2
Procedure: The white bar represents the vehicle control (DI water; n=10), the black bar represents fluoxetine dosed at 12.5 mg/kg (n=11) and the grey bar represents MCC-257 dosed at 0.3 mg/kg (n=11). Vehicle and compounds were administered orally once daily (q.d.) for 20 days prior to behavioral testing. Behavioral testing was carried out as described in Example 2. […] Values are the mean±SEM.
The NSF is a conflict test in which food-deprived animals are presented with a food pellet placed in the center of a brightly-lit open field. This paradigm elicits competing motivations: the drive to eat the food pellet, and the fear of venturing into the center of the arena. The dependent variable in this test is the amount of time it takes for an animal to begin eating the pellet, and this latency has been used as an index of anxiety-like behavior and antidepressant activity because it is decreased by classical anxiolytic drugs such as benzodiazepines (Bodnoff et al. “The effects of chronic antidepressant treatment in an animal model of anxiety.” 1988 Psychopharmacology (Berl) 95(3):298-302; Bodnoff et al. “A comparison of the effects of diazepam versus several typical and atypical anti-depressant drugs in an animal model of anxiety.” 1989 Psychopharmacology (Berl) 97(2):277-9; Shephard and Broadhurst, “Hyponeophagia and arousal in rats: effects of diazepam, 5-methoxy-N,N-dimethyltryptamine, d-amphetamine and food deprivation.” 1982 Psychopharmacology (Berl) 78(4):[…]) as well as antidepressants.
NSF is performed as described previously by Santarelli, et al. (2003) with some modifications. Briefly, male F344 rats were dosed orally once daily (q.d.) for 20-days with vehicle (DI water; n=10), 12.5 mg/kg fluoxetine (n=11) or 0.3 mg/kg MCC-257 (n=11). Animals were food deprived for 24 hours prior to testing. On day 22, 60 minutes after drug administration, NSF was performed in an open field chamber. A single pellet of rodent chow was placed in the center of the open field. […] Saved videos were subsequently scored by blinded observers and the latency to eat the pellet was recorded.

[2] = system: neural progenitor cells within the dentate gyrus of the hippocampus; experiment: In vivo neurogenesis, BrdU positive cell counts in the dentate gyrus; design: species or system rat; conditions: 0.3 mg/kg orally q.d., chronic (26 or 28 days as printed); vs vehicle; FIG. 3
Procedure: The white bar represents vehicle (DI water, n=11) and the grey bar represents MCC-257 dosed at 0.3 mg/kg (n=10). Both vehicle and MCC-257 were dosed orally once daily (q.d.) for 26 days prior to analysis. […] Data are presented as the number of BrdU cells per cubic mm of dentate gyrus. […] Values are the mean±SEM.
For the in vivo neurogenesis assays, male F344 rats were dosed orally once daily (q.d.) for 28-days with vehicle (DI water; n=11) or 0.3 mg/kg MCC-257 ([…]). BrdU was administered once daily between days 9 and 14 (100 mg/kg/day, i.p.).

[3] = system: male F344 rats; experiment: Novel Object Recognition (NOR) cognition assay; assay type: in vivo, rat; conditions: 48-hour delay; increasing oral doses q.d., chronic; vs vehicle; FIG. 4
Procedure: Behavioral testing was carried out as described in Example 2. Data is presented as the mean percentage of visits to a novel object. The white bar represents vehicle (DI water: n=11) and grey bars represent increasing doses of MCC-257 (0.1 mg/kg, n=10; 0.3 mg/kg, n=10; 3.0 mg/kg, n=10). All animals were dosed orally once daily (q.d.) for 29 days prior to testing. […] Values are the mean±SEM.
NOR was performed as described previously by Broadbent et al., (“Spatial memory, recognition memory, and the hippocampus.” 2004 PNAS 101(40):14511-14520) with some modifications. The apparatus consisted of an open field (45×45×50 cm high) made of polycarbonate. Triplicate copies were used of the objects to be discriminated. Care was taken to ensure that the pair of objects tested were made from the same material so that they could not be distinguished readily by olfactory cues although they had very different appearances. Each test session consisted of two phases. In the initial familiarization phase, two identical objects (A1 and A2) were placed in the far corners of the box arena. A rat was then placed in the middle of the arena and allowed 15 minutes to explore both objects. Exploration of an object was defined as directing the nose to the object at a distance of less than 2 cm and/or touching it with the nose. After a delay of 48-hours the rat was re-introduced to the arena (“test phase”). […]

[4] = system: human neural stem cells (hNSCs); experiment: Neuronal differentiation of human neural stem cells (TUJ-1 staining); assay type: cell-based
Excerpt: FIG. 1 is a dose-response curve showing the effect of MCC-257 on neuronal differentiation of human neural stem cells. Data is presented as the percentage of the neuronal positive control, with basal media values subtracted.
Human neural stem cells (hNSCs) were isolated and grown in monolayer culture, plated, treated with varying concentrations of MCC-257, and stained with TUJ-1 antibody for the detection of neuronal differentiation as described in U.S. Patent Publication 2007/0015138 (incorporated by reference). Mitogen-free test media with a positive control for neuronal differentiation was used along with basal media without growth factors as a negative control.
The data is presented as a percent of neuronal positive control.

For CO[C@]1(C(=O)N[C@@H]2CC[C@@]3(C)[C@@H](CC[C@@H]4[C@@H]3CC[C@]3(C)[C@@H]([C@H](C)CCCC(C)C)CC[C@@H]43)C2)C[C@H](O)[C@@H](NC(C)=O)[C@H]([C@H](O)[C@H](O)CO)O1 [MCC-257, 5-acetamido-N-(5alpha-cholestan-3alpha-yl)-3,5-dideoxy-2-O-methyl-D-glycero-alpha-D-galacto-non-2-ulopyranosonamide], the “latency to eat a food pellet in a novel environment” value (“latency to eat a food pellet” for short) ([1]; 0.3 mg/kg orally q.d. for 20 days) was “significantly reduced latency to eat”, the “BrdU positive cells per cubic mm in granule cell layer of dentate gyrus (neurogenesis)” value [2] was “significant increase; also recorded: significantly increased neurogenesis” and the “preference for the novel object (percent visits)” value [3] was “dose dependent increase in preference for the novel object; also recorded: dose-related increase in preference for the novel object”. For the same compound, the EC50 ([4]; Homo sapiens, Neural stem cell, read-out: EC50 of neuronal differentiation) was 90 nM and the “effect on neuronal differentiation” value ([4]; concentration response curve, percent of neuronal positive control, FIG. 1) was “promoted neuronal differentiation in a concentration dependent manner”.

CNCCC(Oc1ccc(C(F)(F)F)cc1)c1ccccc1 (stereo not shown) [fluoxetine, reference compound] was tested, and the “latency to eat a food pellet” value ([1]; 12.5 mg/kg orally q.d. for 20 days) was “significantly reduced” and the “latency to eat a food pellet” value ([1]; 12.5 mg/kg orally q.d. for 20 days, listed as Fluoxetine) was “significantly reduced latency to eat”.
